Experiment in all cases: area under concentration-response curve (viability) (AUC (a.u.)); higher = less active
Common to all, as to details: 48 h

Test [1] concerns CU-ACC1. The essentials: (§1)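 Three adrenocortical carcinoma cell lines were seeded at 500–1,000 cells/well in 5 µL medium in 1,536-well plates. 23 nL of each MIPE 5.0 library compound was added at 11 concentrations. After 48 h (per the protocol name), CellTiter-Glo was added for 15 minutes at room temperature and luminescence was read. Signals were normalised per plate to vehicle and empty-well controls. AC50 and area under the curve came from fitted concentration-response curves, keeping only inhibitory or non-responding curve classes.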

Test [2] has as its system CU-ACC2. The essentials: as §1
Test [3] relates to NCI-H295R. The essentials:
as §1

The structures appear in SMILES notation.

Here are results for 38 compounds from the supplement of paper PMC10949913.

`OC1=C(C=CC=C1)C2=CC=C(C=C2)C3=CSC4=C3C(=C(/C#N)C(=O)N4)/O`: the entries for the “area under concentration-response curve” value in test [1], in test [2] and in test [3] were 535, 626 and 570, respectively.

For `Cn1cc(-c2ccc(-c3cncc(Cl)c3N3CCC4(CCNC4=O)CC3)cc2)cn1`, the “area under concentration-response curve” value in test [1] is 521; in test [2] it was 622; in test [3], 514.

For the compound `Clc1cccc(-c2ccc(-c3nnc(CCCc4ccc5cccnc5n4)o3)cc2)c1`, the “area under concentration-response curve” value in test [1] stood at 547; in test [2], 627; in test [3] it was 594.

Regarding `COc1cc2c(NC3CCN(C4CCCCC4)CC3)nc(N3CCCN(C(C)C)CC3)nc2cc1OCCCN1CCCCC1`, the “area under concentration-response curve” value in test [1] amounted to 534; in test [2], 562; in test [3], 519.

In the case of `NC/1=N/[C@]2(COC[C@H]2CS1)C3=CC(=CC=C3F)NC(=O)C4=NC=C(F)C=C4`, the “area under concentration-response curve” value in test [1] came out at 499; in test [2], 569; in test [3] it was 490.

As for `CC(C)(C)Sc1c(CC(C)(C)C(=O)O)n(Cc2ccc(Cl)cc2)c2ccc(OCc3ccc4ccccc4n3)cc12`, the “area under concentration-response curve” value in test [1] was found to be 578; in test [2], 624; in test [3] it was 554.

Consider `C[C@H](Cc1ccc(O)c(O)c1)[C@@H](C)Cc1ccc(O)c(O)c1`, for which the “area under concentration-response curve” value in test [1] amounted to 496; in test [2], 565; in test [3], 532.

Regarding `CCOC\1=C(/C(=O)NC2=CC=C(OC3=C(Cl)C(=NC=C3)N)C(=C2)F)C(=O)N(\C=C1)C4=CC=C(F)C=C4`, the “area under concentration-response curve” value is 522 in test [1], 578 in test [2] and 530 in test [3].

Consider `O=C(O)CSCC(=O)NC1CCSC1=O` (centres undefined), for which the results for the “area under concentration-response curve” value in test [1], in test [2] and in test [3] were 379, 415 and 405, respectively.

Take `Cc1cc(-c2cnn3c(NC[C@H]4C[C@@](C)(O)C4)cc(Oc4cccnc4)nc23)ccc1C(=O)NC1CC1`: the “area under concentration-response curve” value came to 626 in test [1], 775 in test [2] and 659 in test [3].

In the case of `CCc1nc(N)nc(N)c1-c1ccc(Cl)cc1`, the “area under concentration-response curve” value in test [1] was found to be 483; in test [2], 564; in test [3], 521.

For the compound `COc1ccc(Oc2cc(NCCC(F)(F)F)c3ncc(-c4ccc(C(=O)NC5CC5)c(C)c4)n3n2)c(F)c1F`, the figures for the “area under concentration-response curve” value in test [1], in test [2] and in test [3] were 487, 459 and 501, respectively.

In the case of `O[C@H](C[C@H]1c2c(F)cccc2-c2cncn21)[C@H]1CC[C@H](O)CC1`, the figures for the “area under concentration-response curve” value in test [1], in test [2] and in test [3] were 553, 616 and 536, respectively.

As to `Nc1nc(OCc2ccccc2)c2nc[nH]c2n1`, the “area under concentration-response curve” value was 432 in test [1], 479 in test [2] and 441 in test [3].

On to `CCOC(=O)C(C)OC1=CC=CC2=C1\C=C/N(CC(=O)NC3=CC=C4OCCOC4=C3)C2=O` (centres undefined), for which the “area under concentration-response curve” value was 505 in test [1], 602 in test [2] and 538 in test [3].

Take `CCC(=O)N1CCOc2c(cc(-c3cc(OC)cc(OC)c3)cc2C(=O)N[C@H]2CCCN(C)C2)C1`: the “area under concentration-response curve” value was found to be 500 in test [1], 550 in test [2] and 463 in test [3].

In the case of `CC(=O)N1CCC(Nc2cc(C(=O)NC[C@H](O)CN3CCc4ccccc4C3)ncn2)CC1`, the entries for the “area under concentration-response curve” value in test [1], in test [2] and in test [3] were 450, 558 and 473, respectively.

On to `COc1ccc(CCC(=O)Nc2nc3ccc(Cl)cc3s2)cc1OC`, for which the figures for the “area under concentration-response curve” value in test [1], in test [2] and in test [3] were 575, 600 and 563, respectively.

Turning to `CC(=O)SCC(Cc1ccccc1)C(=O)NCC(=O)OCc1ccccc1` (centres undefined), the “area under concentration-response curve” value came out at 556 in test [1], 582 in test [2] and 573 in test [3].

Turning to `CC1(C)Cc2c(sc(NC(=S)NC(=O)c3ccccc3)c2C(=O)O)CO1`, the “area under concentration-response curve” value in test [1] turned out to be 490; in test [2], 586; in test [3], 522.

For the compound `OC[C@H]1O[C@H](C[C@@H]1O)N2\C=C(\I)C(=O)NC2=O`, the “area under concentration-response curve” value in test [1] came out at 496; in test [2] it was 543; in test [3], 501.

Consider `C[C@@H](c1ncncc1F)[C@](O)(Cn1cncn1)c1ccc(F)cc1F`, for which the entries for the “area under concentration-response curve” value in test [1], in test [2] and in test [3] were 409, 513 and 475, respectively.

Regarding `COc1cc([C@H]2Oc3cc([C@H]4Oc5cc(O)cc(O)c5C(=O)[C@@H]4O)ccc3O[C@@H]2CO)ccc1O`, the “area under concentration-response curve” value in test [1] was determined as 585; in test [2] it was 632; in test [3] it was 587.

For `CCCCCCCCCCCCCCCC(=O)O[C@@H]1[C@@H](O)[C@@H](O)[C@@H]([C@H](NC(=O)[C@@H]2C[C@@H](CCC)CN2C)[C@H](C)Cl)O[C@@H]1SC.Cl`, the “area under concentration-response curve” value in test [1] worked out at 489; in test [2] it was 583; in test [3], 513.

For `Cc1ccccc1N1C(=O)c2cc([S+](N)(=O)[O-])c(Cl)cc2NC1C` (centres undefined), the “area under concentration-response curve” value came to 495 in test [1], 599 in test [2] and 512 in test [3].

As to `COc1cc2c(cc1OC)CC(=O)N(CCCN(C)C[C@H]1Cc3cc(OC)c(OC)cc31)CC2`, the “area under concentration-response curve” value in test [1] was 486; in test [2], 601; in test [3] it was 542.

Turning to `C/C=C(/C)C(=O)O[C@H]1C(C)=CC23C(=O)C(C=C(CO)[C@@H](O)[C@]12O)[C@H]1[C@@H](C[C@H]3C)C1(C)C` (some centres undefined), the “area under concentration-response curve” value in test [1] amounted to 399; in test [2], 505; in test [3], 484.

Regarding `O=[N+]([O-])c1cn2c(n1)OC[C@@H](OCc1ccc(OC(F)(F)F)cc1)C2`, the “area under concentration-response curve” value in test [1] was 528; in test [2], 574; in test [3], 523.

Consider `O=C(Nc1ccc2c(c1)CCN(Cc1ncn[nH]1)C2)c1ccccc1-c1ccc(C(F)(F)F)cc1`, for which the figures for the “area under concentration-response curve” value in test [1], in test [2] and in test [3] were 374, 505 and 476, respectively.

Turning to `CC1=CC=C2N=C(NC(=O)CS\C3=N\C4=C(\SCC4)C(=O)N3C5=CC=CC=C5)SC2=C1`, the entries for the “area under concentration-response curve” value in test [1], in test [2] and in test [3] were 538, 633 and 558, respectively.

`CCC(C)C(N)\C1=N\C(CS1)C(=O)N[C@@H](CC(C)C)C(=O)N[C@H](CCC(O)=O)C(=O)N[C@@H]([C@@H](C)CC)C(=O)N[C@H]2CCCCNC(=O)[C@H](CC(N)=O)NC(=O)[C@@H](CC(O)=O)NC(=O)[C@H](CC3=CN=C[NH]3)NC(=O)[C@@H](CC4=CC=CC=C4)NC(=O)[C@@H](NC(=O)[C@@H](CCCN)NC2=O)[C@@H](C)CC` (some centres undefined): the “area under concentration-response curve” value in test [1] came to 593; in test [2] it was 682; in test [3] it was 582.

Turning to `COC1=CC=C(Cl)C=C1\C2=C\C(=O)NC(=S)N2CC(N)=O`, the figures for the “area under concentration-response curve” value in test [1], in test [2] and in test [3] were 448, 580 and 556, respectively.

On to `Cn1c(=O)c2[nH]cnc2n(C)c1=O`, for which the “area under concentration-response curve” value in test [1] stood at 447; in test [2], 555; in test [3] it was 469.

Regarding `O=C(/C=C/c1ccc(/C=C/C(=O)Nc2ccc(C3=NCCN3)cc2)cc1)Nc1ccc(C2=NCCN2)cc1`, the “area under concentration-response curve” value turned out to be 635 in test [1], 610 in test [2] and 613 in test [3].

On to `CNc1nc(Nc2cnn([C@H]3CCN(C4COC4)C[C@@H]3F)c2Cl)ncc1C(F)(F)F`, for which the “area under concentration-response curve” value worked out at 562 in test [1], 604 in test [2] and 566 in test [3].

`OC[C@H]1O[C@H](C[C@@H]1O)N2\C=C(F)/C(=O)NC2=O`: the “area under concentration-response curve” value in test [1] came to 516; in test [2], 584; in test [3], 497.

In the case of `CNC(=O)c1cccc(-c2ccc3c(N4CCOC[C@@H]4C)nc(N4CCOC[C@@H]4C)nc3n2)c1`, the entries for the “area under concentration-response curve” value in test [1], in test [2] and in test [3] were 452, 545 and 453, respectively.

For the compound `O=C1NC(=O)/C(=C/c2ccc(-c3ccc(F)cc3O)o2)S1`, the “area under concentration-response curve” value in test [1] is 580; in test [2] it was 611; in test [3], 575.
